Two compounds from patent US11873279B2, “Compositions for treatment of ocular diseases” (Perfuse Therapeutics, Inc., priority 2020, dated 2024) can be followed below.

Series [1] is described as follows: Slurry conversion of crystalline forms, XRPD confirmation (thermodynamic stability). In kind it is physicochemical. The method, then: For example, a disclosed crystalline form (e.g., Form 4), may be stored under practical and economical storage conditions, while retaining physical properties so that it may be manufactured into a dosage form. In another set of examples, a disclosed crystalline form (e.g., Form 1, Form 2, Form 3) are converted to disclosed crystalline form (e.g., Form 4). For example, heating a slurry of crystalline Form 1 in about 20 mL of a mixture of isopropanol and water (1:2) at 80° C. for 24 hours, and then cooling and filtering the sample obtained from the solution affords the crystalline Form 4. In another example, stirring the amorphous form of a compound of Formula I in 20 mL of water at 25° C. for 15 hours affords crystalline Form 2, and then subsequently heating crystalline Form 2 at 100° C. for 40 hours followed by filtration affords the crystalline Form 4. In yet another example, heating a slurry of the anhydrous crystalline Form 3 in 30 mL of water at 80° C. for 40 hours and then cooling and filtering the sample obtained from the solution affords the crystalline Form 4. […] In an embodiment, a disclosed crystalline form may have improved chemical and/or physical stability when e.g., compounded in a pharmaceutical formulation, as compared to e.g., the amorphous form. In some embodiments, the crystalline form is crystalline Form 4.
In an alternate method, 150 mg of Edonentan (Form 3) was added to a mixture of isopropanol and water (1 mL and 2 mL, respectively). The resulting slurry was stirred at 15° C. for 48 hours and then filtered.
In an alternate method, 200 mg of Edonentan (Form 1) was added to a mixture of isopropanol and water (1.3 mL and 2.6 mL, respectively). The resulting solution was heated to 80° C. and stirred for 24 h, then cooled and filtered.

In series [2] the test system is laser-induced NHP glaucoma model. Nature of the series: Laser-induced NHP glaucoma model, optic nerve head blood flow. In kind it is in vivo, non-human primate (NHP). The following applies: dose-dependent. From the text: Other examples of relevant animal glaucoma models are Morrison's rat model of chronically elevated IOP and the laser-induced non-human primate (NHP) glaucoma model. Glaucoma in Morrison's rat model is induced by sustained elevation of IOP through hypertonic saline administration via episcleral veins. […] Efficacy in the above-described glaucoma models is defined as reduction in IOP, improvement in optic nerve head or retinal blood flow from baseline, prevention or slowing of the progression of structural neurodegenerative changes such as retinal nerve fiber layer thickness as measured by optical coherence tomography (OCT) or retinal ganglion cell counts on flat mount as well as functional changes such as electroretinography (ERG) or contrast sensitivity after treatment with a composition containing Edonentan crystalline forms.

As to `Cc1onc(NS(=O)(=O)c2ccccc2-c2ccc(-c3ncco3)cc2CN(C)C(=O)CC(C)(C)C)c1C` [Form 4, N-[[2′-[[(4,5-dimethyl-3-isoxazolyl)amino]sulfonyl]-4-(2-oxazolyl)[1,1′-biphenyl]-2-yl]methyl]-N,3,3-trimethylbutanamide], the “Thermodynamic stability relative to Form 1” value in series [1] (Form 1 in isopropanol/water (1.3 mL/2.6 mL), 80° C., 24 h, converted to Form 4 by XRPD) was “more thermodynamically stable than Form 1”. Moreover, in series [1] (Form 3 slurry in isopropanol/water (1 mL/2 mL), 15° C., 48 hours, converted to Form 4 by XRPD), the “Thermodynamic stability relative to Form 3” value is listed as “more thermodynamically stable than Form 3”. The “Thermodynamic stability compared to the other crystalline forms” value in series [1] (summary statement of Example 6) is “higher thermodynamic stability compared to Form 1, Form 2 and Form 3”.

For `Cc1onc(NS(=O)(=O)c2ccccc2-c2ccc(-c3ncco3)cc2CN(C)C(=O)CC(C)(C)C)c1C` [Edonentan, N-[[2′-[[(4,5-dimethyl-3-isoxazolyl)amino]sulfonyl]-4-(2-oxazolyl)[1,1′-biphenyl]-2-yl]methyl]-N,3,3-trimethylbutanamide], the “Optic nerve head blood flow” value in series [2] is “improve optic nerve head blood flow in a dose-dependent manner”.
